Experimental findings from patent publication US20070135383A1, “Phospholipase inhibitors, including multi-valent phospholipase inhibitors, and use thereof, including as lumen-localized phospholipase inhibitors” (priority 2005, published 2007) are described below.

Series [1] relates to wild-type C57BL/6 mice on high fat/high sucrose diet. The experiment in a line: In-vivo evaluation on high fat/high sucrose diabetogenic diet, 10 weeks (Example 10). The settings on record: for fasting glucose levels: low dose 25 mg/kg/day. The arrangement: species or system mouse. On the procedure: ILY-4001 (FIG. 7) was evaluated as a PLA2 IB inhibitor in a set of experiments using wild-type mice and genetically deficient PLA2 (−/−) mice (also referred to herein as PLA2 knock-out (KO) mice). In these experiments, wild-type and PLA2 (−/−) mice were maintained on a high fat/high sucrose diet, details of which are described below.
Briefly, four groups were set up, each having six mice. Three of the groups included six wild-type PLA2 (+/+) mice in each group (eighteen mice total), and one of the groups included six genetically deficient PLA2 (−/−) mice. One of the wild-type groups was used as a wild-type control group, and was not treated with ILY-4001. The other two wild-type groups were treated with ILY-4001—one group at a lower dose (indicated as “L” in Table 1) of 25 mg/kg/day, and the other at a higher dose (indicated as “H” in Table 1) of 90 mg/kg/day. The group comprising the PLA2 (−/−) mice was used as a positive control group.
The experimental protocol used in this study was as follows. The four groups of mice, including wild type and isogenic PLA2 (−/−) C57BL/J mice were acclimated for three days on a low fat/low carbohydrate diet. After the three day acclimation phase, the animals were fasted overnight and serum samples taken to establish baseline plasma cholesterol, triglyceride, and glucose levels, along with baseline body weight. The mice in each of the treatment groups were then fed a high fat/high sucrose diabetogenic diet (Research Diets D12331). 1000 g of the high fat/high sucrose D12331 diet was composed of casein (228 g), DL-methionine (2 g), maltodextrin 10 (170 g), sucrose (175 g), soybean oil (25 g), hydrogenated coconut oil (333.5 g), mineral mix S10001 (40 g), sodium bicarbonate (10.5 g), potassium citrate (4 g), vitamin mix V10001 (10 g), and choline bitartrate (2 g). This diet was supplemented with ILY-4001 treatments such that the average daily dose of the compound ingested by a 25 g mouse was: 0 mg/kg/day (wild-type control group and PLA2 (−/−) control group); 25 mg/kg/day (low-dose wild-type treatment group), or 90 mg/kg/day (high-dose wild-type treatment group). The animals were maintained on the high fat/high sucrose diet, with the designated ILY-4001 supplementation, for a period of ten weeks.
Body weight measurements were taken for all animals in all treatment and control groups at the beginning of the treatment period and at 4 weeks and 10 weeks after initiation of the study. (See Example 10A). Blood draws were also taken at the beginning of the treatment period (baseline) and at 4 weeks and 10 weeks after initiation of the study, in order to determine fasting glucose (See Example 10B). Cholesterol and triglyceride levels were determined from blood draws taken at the beginning of the treatment (baseline) and at ten weeks. (See […]).

Series [2] can be described thus: Bioavailability study, IV vs oral (Example 13). The settings on record: male, CD-1, mouse, plasma; oral ~30 mg/kg vs IV ~3 mg/kg. Type of series: in vivo, male CD-1 mice. The method, then: Bioavailability was determined for Compound 5-24 (ILY-V-24) as follows. Generally, the bioavailability was calculated by comparing a timecourse of the concentration of the test compound in the serum of mice after an intravenous (IV) dosing, versus the timecourse of the concentration following an oral dosing of the test compound. The IV dose was ˜3 mg/kg, the oral dose was ˜30 mg/kg.
Oral Formulation. The oral formulation was prepared as follows. To sterile flask, 90 ml of sterile Milli-Q water was added. 9 ml of PEG-400 was added (final concentration of 9%). 50 ul of Tween-80 was added (final concentration of 0.05%). 0.9 g of CMC was weighed and added (final concentration of 0.9% w/v). […]
Study Design. […] On study day 0, all the animals were weighed, dosages were calculated and the animals were dosed by oral route (PO) or (IV) as outlined below in Table 5. […]
Calculations. Bioavailability was calculated as follows. Individual doses were calculated based on an average of body weights taken on the day of dosing. Serum concentrations of test compound, as well as the actual concentration of dosing solutions, were measured using 2-dimensional Mass Spectrophotometry after Liquid Chromatography (LC MS/MS). […]

[3] abbreviates: low and high doses (25 and 90 mg/kg/day), 10 weeks.

SMILES strings stand for the structures.

As for `Cc1c(C(=O)C(N)=O)c2c(OCC(=O)O)cccc2n1Cc1ccccc1-c1ccccc1` [ILY-4001, 2-(3-(2-amino-2-oxoacetyl)-1-(biphenyl-2-ylmethyl)-2-methyl-1H-indol-4-yloxy)acetic acid], in series [1] (25 mg/kg/d and 90 mg/kg/d in diet, week 4 and week 10, vs wild-type control), the body weight gain result is listed as “significantly reduced body weight gains”. For the same compound, in series [1] (setting [3]), the “plasma levels of cholesterol” value is “substantially reduced” and the “plasma levels of triglycerides” value is given as “substantially reduced”. In addition, the fasting glucose levels entry in series [1] (week four) is reported as “moderately beneficial effect”. Moreover, the fasting glucose levels result in series [1] (week ten) is recorded as “beneficial effect was not observed”.

What is called bioavailability is the share of a dose that reaches the circulation, judged against a reference dose that is usually intravenous. With `Cc1c(C(=O)C(N)=O)c2c(OCC(=O)O)cccc2n1CCCCCCCCSCCCCCCCCSCCCCCCCCn1c(C)c(C(=O)C(N)=O)c2c(OCC(=O)O)cccc21` [ILY-V-24, 2,2′-(1,1′-(8,8′-(Octane-1,8-diylbis(sulfanediyl))bis(octane-8,1-diyl))bis(3-(2-amino-2-oxoacetyl)-2-methyl-1H-indole-4,1-diyl))bis(oxy)diacetic acid], the bioavailability in series [2] lay within 4 to 8%.
